Biological target: chorismate mutase (CM) (Mycobacterium tuberculosis, UniProt P9WIB9)
Assay: biochemical
Details: read-out: % Inhibition @ 30 μM ^a

Sequence of chorismate mutase (CM) (P9WIB9 34-199): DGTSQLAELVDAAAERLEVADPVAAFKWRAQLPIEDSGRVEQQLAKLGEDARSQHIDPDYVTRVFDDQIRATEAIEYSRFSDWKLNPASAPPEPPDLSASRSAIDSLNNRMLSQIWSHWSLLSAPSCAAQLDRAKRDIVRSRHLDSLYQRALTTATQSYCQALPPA

Compound `COc1ccc(CCNc2c([N+](=O)[O-])cc(C(=O)O)cc2S(N)(=O)=O)cc1OC` [G, 4-(3,4-dimethoxyphenethylamino)-3-nitro-5-sulfamoylbenzoic acid] has an inhibition at 30 µM of 57%.

From publication PMC9047634 (RSC Advances, 2019)
